# Key:
# [1] = target: T1, TAPL (Homo sapiens, UniProt Q9NP78); conditions: GTP vs ATP; cited from earlier work
# T1 construct: Human coreTAPL (Q9NP78 UniProt, amino acid 143–766) fused C-terminally to mVenus; made in house; host or cells: Pichia pastoris SMD1168-His+
# T1 sequence (Q9NP78 143-766): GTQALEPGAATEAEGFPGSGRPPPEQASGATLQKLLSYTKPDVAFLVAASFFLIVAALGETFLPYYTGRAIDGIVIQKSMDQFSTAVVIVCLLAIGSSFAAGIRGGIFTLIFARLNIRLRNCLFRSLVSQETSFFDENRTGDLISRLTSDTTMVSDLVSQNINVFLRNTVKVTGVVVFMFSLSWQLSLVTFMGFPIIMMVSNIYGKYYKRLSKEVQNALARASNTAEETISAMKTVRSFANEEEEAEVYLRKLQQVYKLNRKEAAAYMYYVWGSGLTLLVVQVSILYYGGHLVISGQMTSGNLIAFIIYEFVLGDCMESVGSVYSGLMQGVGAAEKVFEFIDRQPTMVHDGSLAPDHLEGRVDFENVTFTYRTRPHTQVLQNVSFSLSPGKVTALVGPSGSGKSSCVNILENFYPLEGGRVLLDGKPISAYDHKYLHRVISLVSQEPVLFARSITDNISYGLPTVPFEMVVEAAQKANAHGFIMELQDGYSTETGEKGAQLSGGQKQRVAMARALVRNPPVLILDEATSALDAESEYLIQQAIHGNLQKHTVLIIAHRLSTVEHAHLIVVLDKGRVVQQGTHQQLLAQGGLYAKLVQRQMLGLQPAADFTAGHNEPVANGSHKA
# Excerpt: To decipher the coupling between nucleotide hydrolysis and peptide transport, we intended to reduce futile hydrolysis cycles without translocating peptides. Assuming a kinetic effect where ATP binding and subsequent ATP hydrolysis is much faster than peptide binding, a more stoichiometric coupling should be obtained with decreasing ATP concentrations. Therefore, we determined Michaelis-Menten kinetics of nucleotide hydrolysis and peptide transport with decreasing nucleotide concentrations. For sensitivity reasons, we switched from the colorimetric malachite green based assay to a radioactive b ...
# [2] = target: TmrAB (Thermus thermophilus, UniProt Q72J04+Q72J05); test: NTP dependent peptide transport by TmrAB; conditions: 68 °C, 9-mer^FL peptide
# [3] = system: PatA/PatB; conditions: transport and NTP hydrolysis, 37 °C; cited from earlier work
# Excerpt: Both nucleotides show the same Km and kcat values in respect of NTP hydrolysis. […] NTP dependent transport was found also for other ABC transporters. […] The full-length ABC transport Pdr5 from yeast hydrolyzes GTP and even UTP, but ...
# [4] = system: P-gp; conditions: cited from earlier work
# Excerpt: (§1) Other ABC transporters like P-glycoprotein have a biphasic substrate dependent ATPase activity. […] Basal ATPase activity of MRP1 is 3-fold stimulated by its substrate leucotriene C4, which forms contacts to both halfs o ...
# [5] = system: MRP1; conditions: cited from earlier work
# Excerpt: as §1
smiles,measurement,setting,value
Nc1nc2c(ncn2[C@@H]2O[C@H](COP(=O)(O)OP(=O)(O)OP(=O)(O)O)[C@@H](O)[C@H]2O)c(=O)[nH]1 [GTP],fuelling of peptide transport vs ATP (in words),[1],to a lower extend than ATP
same,"fold decreased transport rate for GTP compared to ATP, TmrAB",[2],6 fold
same,nucleotide preference of PatA/PatB (in words),[3],strongly prefers GTP over ATP
O[C@@H](COc1cccc2ncccc12)CN1CCN([C@@H]2c3ccccc3[C@@H]3[C@H](c4ccccc42)C3(F)F)CC1 [Zosuquidar],effect on P-gp transport and ATP hydrolysis (in words),[4],inhibits transport but stimulates ATP hydrolysis
CCCCC/C=C\C\C=C/C=C/C=C/[C@@H](SC[C@H](NC(=O)CC[C@H](N)C(=O)O)C(=O)NCC(=O)O)[C@@H](O)CCCC(=O)O [leucotriene C4],fold stimulation of basal ATPase activity,[5],3 fold

# From article PMC6695453, “Peptide translocation by the lysosomal ABC transporter TAPL is regulated by coupling efficiency and activation energy” (Scientific Reports, 2019)
